Assay results: ChEMBL document CHEMBL1153684, “Antiinflammatory -benzeneethanamines. III” (Bioorg Med Chem Lett, 1993)
pIC50: −log10 of the molar value.

What was measured:
[1] = target: T1, Polyunsaturated fatty acid 5-lipoxygenase (Rattus norvegicus, UniProt P12527); experiment: Inhibition of rat basophilic leukemia cell 5-lipoxygenase
T1 sequence (P12527 whole entry): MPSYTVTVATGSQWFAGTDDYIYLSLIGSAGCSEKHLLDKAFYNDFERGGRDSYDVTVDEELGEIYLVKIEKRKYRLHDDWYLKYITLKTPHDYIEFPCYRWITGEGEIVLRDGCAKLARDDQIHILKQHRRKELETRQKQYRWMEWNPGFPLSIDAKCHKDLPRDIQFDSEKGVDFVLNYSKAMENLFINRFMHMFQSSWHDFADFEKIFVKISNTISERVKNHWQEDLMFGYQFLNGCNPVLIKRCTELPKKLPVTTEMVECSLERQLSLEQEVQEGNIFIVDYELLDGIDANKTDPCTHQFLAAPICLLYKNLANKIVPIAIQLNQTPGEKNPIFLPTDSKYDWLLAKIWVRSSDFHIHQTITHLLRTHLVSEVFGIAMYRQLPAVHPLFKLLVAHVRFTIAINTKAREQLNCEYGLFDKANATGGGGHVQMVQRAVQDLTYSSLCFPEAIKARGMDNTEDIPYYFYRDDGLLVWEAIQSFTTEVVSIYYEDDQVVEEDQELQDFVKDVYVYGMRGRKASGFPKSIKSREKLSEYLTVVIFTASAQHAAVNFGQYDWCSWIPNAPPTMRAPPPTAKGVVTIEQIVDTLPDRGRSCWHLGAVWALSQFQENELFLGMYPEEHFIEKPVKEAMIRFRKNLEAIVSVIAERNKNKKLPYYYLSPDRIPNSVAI

Phospholipase A2 = Phospholipase A2 (Rattus norvegicus, UniProt P04055); experiment: Inhibitory activity against polymorphonuclear cell phospholipase-A2 in rat
Rattus norvegicus [2] = experiment: Compound was tested for its oral antiinflammatory activity in the rat carrageenan paw edema assay (CAR); type: functional
Mus musculus [3] = species: Mus musculus; experiment: Compound was tested for its oral antiinflammatory activity in the mouse contact sensitivity assay (CON SEN); type: functional
Mus musculus [4] = experiment: Percent inhibition for its antiinflammatory activity in the tetradecanoyl phorbol acetate mouse ear edema assay (TPA EAR); Inhibition at 100 […]; type: functional
Mus musculus [5] = experiment: Compound was tested for its oral antiinflammatory activity in the mouse contact sensitivity assay (CON SEN) at the specified dose, activity expressed as % inhibition at 50 mg/Kg; type: functional
Rattus norvegicus [6] = experiment: Compound was tested for its antiinflammatory activity in the rat established adjuvant arthritis paw edema assay (EST ADJ ARTH), after oral administration; type: functional
Rattus norvegicus [7] = experiment: Percent inhibition for its antiinflammatory activity in the rat carrageenan paw edema assay (CAR), % inhibition at 50 mg/Kg; type: functional

Phospholipase A2, sequence (P04055 whole entry): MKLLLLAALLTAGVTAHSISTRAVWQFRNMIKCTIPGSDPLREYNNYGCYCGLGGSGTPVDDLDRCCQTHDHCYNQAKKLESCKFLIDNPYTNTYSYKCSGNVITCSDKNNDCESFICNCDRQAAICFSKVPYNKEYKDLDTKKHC

Structure (SMILES)	pIC50 [1]	pIC50 (Phospholipase A2)	ED30 (Rattus norvegicus [2])	ED35 (Mus musculus [3])	Inhibition (Mus musculus [4])	inhibition in vivo at 50 mg/kg (Mus musculus [5])	ED30 (Rattus norvegicus [2]; Rattus norvegicus, po, read-out: ED30)	ED50 (Rattus norvegicus [6])	inhibition in vivo at 50 mg/kg (Rattus norvegicus [7])
Cl.NCC(CCCSc1ccc2ccccc2c1)c1ccc(F)cc1 (stereo not given)	4.64	4.85	>153.6 µM/kg						
Cc1ccc(SCCCCCC(CN)c2ccc(F)cc2)cc1.Cl (stereo not given)	4.46	5.18	117.7 µM/kg						
Cl.NCC(CCCCSc1ccc2ccccc2c1)c1ccc(F)cc1 (stereo not given)	3.89	5.62	171.3 µM/kg						
Cc1ccc(SCCCCC(CN)c2ccc(F)cc2)cc1.Cl (stereo not given)	5.02	5.26	1.4 µM/kg	8.9 mg/kg	37%	51.2%	0.51 mg/kg	50 mg/kg	59%
CC(C)(C)c1ccc(SCCCCC(CN)c2ccc(F)cc2)cc1.Cl (stereo not given)	3.64	5.32	153.8 µM/kg						
Cc1ccc(SCCCC(CN)c2ccc(F)cc2)cc1.Cl (stereo in doubt)	4.12	4.27	>172.8 µM/kg						
Cc1ccc(SCCCC(CN)c2ccc(F)cc2)cc1.Cl (stereo in doubt; 2)	4.42	4.55	50 µM/kg						
NC1=NN(c2cccc(C(F)(F)F)c2)CC1 [BW-755C]		< 4.60							
C[C@@H]1C[C@H]2[C@@H]3CCC4=CC(=O)C=C[C@]4(C)[C@@]3(F)[C@@H](O)C[C@]2(C)[C@@]1(O)C(=O)CO [DEXAMETHASONE]	< 4.60	< 3.12	<2.5 µM/kg						
COc1ccc2c(c1)c(CC(=O)O)c(C)n2C(=O)c1ccc(Cl)cc1 [INDOMETHACIN]	< 3.60		2.8 µM/kg						
CCN(CC)CCCC(C)Nc1c2ccc(Cl)cc2nc2ccc(OC)cc12 (stereo not given) [QUINACRINE]		4.00	5.8 µM/kg						
